Test results: patent US9505742B2, “3,4-dihydro-2H-isoquinoline-1-one and 2,3-dihydro-isoindol-1-one compounds” (Hoffmann-La Roche Inc., priority 2013, dated 2016)

Tests used:
human CYP11B1 = molecular target: T1, human CYP11B1 (Homo sapiens, UniProt P15538); experiment: G-402 cellular enzyme assay, human CYP11B1 (cortisol release, HTRF); type: cell-based; conditions: G-402 cells expressing human CYP11B1; 1 μM Deoxycortisol
T1 construct: The expression plasmids contains the ORF for either human/cyno CYP11B1 or CYP11B2; expressed in transfected cells
T1 sequence (P15538 25-503): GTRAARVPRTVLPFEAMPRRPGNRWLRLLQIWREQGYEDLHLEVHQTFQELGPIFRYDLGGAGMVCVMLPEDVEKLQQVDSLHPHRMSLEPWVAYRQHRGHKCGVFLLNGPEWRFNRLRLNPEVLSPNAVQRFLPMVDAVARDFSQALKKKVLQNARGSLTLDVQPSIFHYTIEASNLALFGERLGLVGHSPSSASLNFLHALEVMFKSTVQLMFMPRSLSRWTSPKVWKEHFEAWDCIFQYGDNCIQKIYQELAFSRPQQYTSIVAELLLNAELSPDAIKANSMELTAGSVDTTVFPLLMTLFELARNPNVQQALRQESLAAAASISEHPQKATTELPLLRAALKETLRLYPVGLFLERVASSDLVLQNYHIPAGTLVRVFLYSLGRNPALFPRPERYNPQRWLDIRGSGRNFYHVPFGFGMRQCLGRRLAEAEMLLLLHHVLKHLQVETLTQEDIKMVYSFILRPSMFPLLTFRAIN
Source text: (§1) Herein we identified the use of the G-402 cell line as a host cell to ectopically express (transiently or stably) enzymes of the CYP11 family. Specifically we developed stable G-402 cells expressing ectopically human CYP11B1, human CYP11B2, human CYP11A1, cynmolgus CYP11B1 or cynomolgus CYP11B2 enzyme activity. Importantly the identified cell line G-402 expresses co-factors (adrenodoxin and adrenodoxin reductase) important for the activity of the CYP11 family and no relevant enzyme activity of the CYP11 family (in comparison to H295R cells) was detected in these cells. Therefore the G-402 cell line is uniquely suited as a host cell for the ectopic expression of enzymes from the CYP11 family. G-402 cells can be obtained from ATCC (CRL-1440) and were originally derived from a renal leiomyoblastoma.
(§2) The expression plasmids contains the ORF for either human/cyno CYP11B1 or CYP11B2 under the control of a suitable promoter (CMV-promoter) and a suitable resistance marker (neomycin). Using standard techniques the expression plasmid is transfected into G-402 cells and these cells are then selected for expressing the given resistance markers. Individual cell-clones are then selected and assessed for displaying the desired enzymatic activity using 11-Deoxycorticosterone (Cyp11B2) or 11-Deoxycortisol (Cyp11B) as a substrate.
(§3) G-402 cells expressing CYP11 constructs were established as described above and maintained in McCoy's 5a Medium Modified, ATCC Catalog No. 30-2007 containing 10% FCS and 400 μg/ml G418 (Geneticin) at 37° C. under an atmosphere of 5% CO2/95% air. Cellular enzyme assays were performed in DMEM/F12 medium containing 2.5% charcoal treated FCS and appropriate concentration of substrate (0.3-10 uM 11-Deoxycorticosterone, 11-Deoxycortisol or Corticosterone). For assaying enzymatic activity, cells were plated onto 96 well plates and incubated for 16 h. An aliquot of the supernatant is then transferred and analyzed for the concentration of the expected product (Aldosterone for CYP11B2; Cortisol for CYP11B1). The concentrations of these steroids can be determined using HTRF assays from CisBio analyzing either Aldosterone or Cortisol.
(§4) Inhibition of the release of produced steroids can be used as a measure of the respective enzyme inhibition by test compounds added during the cellular enzyme assay. The dose dependent inhibition of enzymatic activity by a compound is calculated by means of plotting added inhibitor concentrations (x-axes) vs. measured steroid/product level (y-axes). The inhibition is then calculated by fitting the following 4-parameter sigmoidal function (Morgan-Mercer-Flodin (MMF) model) to the raw data points using the least squares method:
(§5) [formula] wherein, A is the maximum y value, B is the EC50 factor determined using XLFit, C is the minimum y value and D is the slope value.
(§6) EC50 values for compounds claimed herein were tested with the G402-based assay system described. Cyp11B2 enzyme activity was tested in presence of 1 μM Deoxycorticosterone and variable amounts of inhibitors; Cyp11B1 enzyme activity was tested in presence of 1 μM Deoxycortisol and variable amounts of inhibitors.

human CYP11B2 = molecular target: T2, human CYP11B2 (Homo sapiens, UniProt P19099); experiment: G-402 cellular enzyme assay, human CYP11B2 (aldosterone release, HTRF); type: cell-based; conditions: G-402 cells expressing human CYP11B2; 1 μM Deoxycorticosterone
T2 construct: The expression plasmids contains the ORF for either human/cyno CYP11B1 or CYP11B2; expressed in transfected cells
T2 sequence (P19099 25-503): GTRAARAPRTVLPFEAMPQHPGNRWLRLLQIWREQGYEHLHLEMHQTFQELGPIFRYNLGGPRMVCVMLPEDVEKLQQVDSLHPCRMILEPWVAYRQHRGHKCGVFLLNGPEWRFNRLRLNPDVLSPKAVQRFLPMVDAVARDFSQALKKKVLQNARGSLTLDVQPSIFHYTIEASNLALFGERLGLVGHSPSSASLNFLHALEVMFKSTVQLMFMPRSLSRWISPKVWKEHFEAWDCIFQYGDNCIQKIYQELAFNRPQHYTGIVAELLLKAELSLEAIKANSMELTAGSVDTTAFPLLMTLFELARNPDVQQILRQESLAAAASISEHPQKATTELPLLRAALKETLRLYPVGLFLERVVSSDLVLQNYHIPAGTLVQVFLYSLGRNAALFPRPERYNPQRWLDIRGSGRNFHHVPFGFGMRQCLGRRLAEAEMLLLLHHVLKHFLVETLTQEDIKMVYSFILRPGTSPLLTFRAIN
Source text: as §1, §2, §3, §4, §5, §6

Row | SMILES | EC50 (human CYP11B1) | EC50 (human CYP11B2)
1 | CCS(=O)(=O)N1CCC(c2cncc(N3Cc4cc(Cl)ccc4C3=O)c2)CC1 [Example 21, 5-Chloro-2-[5-(1-ethylsulfonylpiperidin-4-yl)pyridin-3-yl]-3H-isoindol-1-one] | 1050 nM | 25 nM
2 | CCCS(=O)(=O)N1CCC(F)(c2cncc(N3C(=O)c4ccc(OC)nc4C3(C)C)c2)CC1 [Example 43, 6-[5-(4-Fluoro-1-propylsulfonyl-4-piperidyl)-3-pyridyl]-2-methoxy-7,7-dimethyl-pyrrolo[3,4-b]pyridin-5-one] | 1900 nM | 21 nM
3 | CCS(=O)(=O)N1CCC(c2cncc(N3C(=O)c4ccc(Cl)cc4C3(C)C)c2)C1 (stereo not drawn) [Example 7, 5-Chloro-2-[5-(1-ethylsulfonylpyrrolidin-3-yl)pyridin-3-yl]-3,3-dimethylisoindol-1-one] | 149 nM | 2 nM
4 | Cc1ccncc1C(=O)N1CCC(c2cncc(N3Cc4cc(Cl)ccc4C3=O)c2)CC1 [Example 23, 5-Chloro-2-[5-[1-(4-methylpyridine-3-carbonyl)piperidin-4-yl]pyridin-3-yl]-3H-isoindol-1-one] | 949 nM | 97 nM
5 | CCCS(=O)(=O)N1CCC(c2cncc(N3C(=O)c4ccc(Cl)cc4C3(C)C)c2)C1 (single isomer, unassigned; (+)) [Example 8, (+)-5-chloro-3,3-dimethyl-2-[5-[(3R or 3S)-1-propylsulfonylpyrrolidin-3-yl]pyridin-3-yl]isoindol-1-one] | 109 nM | 4 nM
6 | CC(C)S(=O)(=O)N1CCC(F)(c2cncc(N3C(=O)c4ccc(C#N)cc4C3(C)C)c2)CC1 [Example 39, 2-[5-(4-Fluoro-1-isopropylsulfonyl-4-piperidyl)-3-pyridyl]-3,3-dimethyl-1-oxo-isoindoline-5-carbonitrile] | 1850 nM | 9 nM
7 | CCS(=O)(=O)N1CCC(c2cncc(N3C(=O)c4ccc(Cl)cc4[C@@H]3C)c2)CC1 (single isomer, unassigned) [Example 25, (−)-(3S or 3R)-5-chloro-2-[5-(1-ethylsulfonylpiperidin-4-yl)pyridin-3-yl]-3-methyl-3H-isoindol-1-one] | 107 nM | 2 nM
8 | COc1ccc2c(n1)C(C)(C)N(c1cncc(C3(F)CCN(C(=O)c4cnn(C)c4)CC3)c1)C2=O [Example 41, 6-[5-[4-Fluoro-1-(1-methylpyrazole-4-carbonyl)-4-piperidyl]-3-pyridyl]-2-methoxy-7,7-dimethyl-pyrrolo[3,4-b]pyridin-5-one] | 986 nM | 35 nM
9 | CCS(=O)(=O)N1CCC(F)(c2cncc(N3C(=O)c4ccc(Cl)cc4C3(C)C)c2)CC1 [Example 30, 5-Chloro-2-[5-(1-ethylsulfonyl-4-fluoropiperidin-4-yl)pyridin-3-yl]-3,3-dimethylisoindol-1-one] | 153 nM | 1 nM
10 | CCS(=O)(=O)N1CCC(c2cncc(N3C(=O)c4ccc(Cl)cc4[C@H]3C)c2)CC1 (single isomer, unassigned) [Example 24, (+)-(3R or 3S)-5-chloro-2-[5-(1-ethylsulfonylpiperidin-4-yl)pyridin-3-yl]-3-methyl-3H-isoindol-1-one] | 433 nM | 2 nM
11 | Cc1ccncc1C(=O)N1CCC(c2cncc(N3C(=O)c4ccc(Cl)cc4C3(C)C)c2)CC1 [Example 18, 5-Chloro-3,3-dimethyl-2-[5-[1-(4-methylpyridine-3-carbonyl)piperidin-4-yl]pyridin-3-yl]isoindol-1-one] | 219 nM | 16 nM
12 | CC(C)S(=O)(=O)N1CCC(c2cncc(N3C(=O)c4ccc(Cl)cc4[C@H]3C)c2)CC1 (single isomer, unassigned) [Example 26, (+)-(3R or 3S)-5-chloro-3-methyl-2-[5-(1-propan-2-ylsulfonylpiperidin-4-yl)pyridin-3-yl]-3H-isoindol-1-one] | 1620 nM | 11 nM
13 | CC1(C)c2cc(Cl)ccc2C(=O)N1c1cncc(C2CCCN(S(C)(=O)=O)C2)c1 (single isomer, unassigned; (-)) [Example 6, (−)-5-chloro-3,3-dimethyl-2-[5-[(3S or 3R)-1-methylsulfonylpiperidin-3-yl]pyridin-3-yl]isoindol-1-one] | 332 nM | 15 nM
14 | CC1(C)c2cc(Cl)ccc2C(=O)N1c1cncc(C2(F)CCN(S(=O)(=O)C3CC3)CC2)c1 [Example 38, 5-Chloro-2-[5-(1-cyclopropylsulfonyl-4-fluoro-4-piperidyl)-3-pyridyl]-3,3-dimethyl-isoindolin-1-one] | 575 nM | 1 nM
15 | CC(C)S(=O)(=O)N1CCC(c2cncc(N3Cc4cc(Cl)ccc4C3=O)c2)CC1 [Example 22, 5-Chloro-2-[5-(1-propan-2-ylsulfonylpiperidin-4-yl)pyridin-3-yl]-3H-isoindol-1-one] | 7340 nM | 84 nM

Continued by falling EC50 (human CYP11B1), values first:

Row | EC50 (human CYP11B1) | EC50 (human CYP11B2) | SMILES
16 | 8070 nM | 34 nM | COc1ccc2c(n1)C(C)(C)N(c1cncc(C3(F)CCN(S(=O)(=O)C(C)C)CC3)c1)C2=O [Example 42, 6-[5-(4-Fluoro-1-isopropylsulfonyl-4-piperidyl)-3-pyridyl]-2-methoxy-7,7-dimethyl-pyrrolo[3,4-b]pyridin-5-one]
17 | 4550 nM | 148 nM | CC(=O)N1CC(c2cncc(N3C(=O)c4ccc(Cl)cc4C3(C)C)c2)C1 [Example 33, 2-[5-(1-Acetylazetidin-3-yl)pyridin-3-yl]-5-chloro-3,3-dimethylisoindol-1-one]
18 | 2420 nM | 19 nM | CCS(=O)(=O)N1CCC(F)(c2cncc(N3C(=O)c4ccc(OC)nc4C3(C)C)c2)CC1 [Example 40, 6-[5-(1-Ethylsulfonyl-4-fluoro-4-piperidyl)-3-pyridyl]-2-methoxy-7,7-dimethyl-pyrrolo[3,4-b]pyridin-5-one]
19 | 1400 nM | 18 nM | Cc1ccncc1C(=O)N1CC(c2cncc(N3C(=O)c4ccc(Cl)cc4C3(C)C)c2)C1 [Example 36, 5-Chloro-3,3-dimethyl-2-[5-[1-(4-methylpyridine-3-carbonyl)azetidin-3-yl]pyridin-3-yl]isoindol-1-one]
20 | 1340 nM | 21 nM | CC1(C)c2cc(Cl)ccc2C(=O)N1c1cncc(C2CCN(C(=O)c3ccncc3Cl)CC2)c1 [Example 19, 5-Chloro-2-[5-[1-(3-chloropyridine-4-carbonyl)piperidin-4-yl]pyridin-3-yl]-3,3-dimethylisoindol-1-one]
21 | 98 nM | 2 nM | CCCS(=O)(=O)N1CCC(F)(c2cncc(N3C(=O)c4ccc(Cl)cc4C3(C)C)c2)CC1 [Example 37, 5-Chloro-2-[5-(4-fluoro-1-propylsulfonyl-4-piperidyl)-3-pyridyl]-3,3-dimethyl-isoindolin-1-one]
